Legend:
Experiment in all cases: relative viability (nuclei count vs DMSO), 5 days (fraction); higher = more cells survive
IU1-47 + Alpelisib = compound: CC1=CC(=C(N1C2=CC=C(C=C2)Cl)C)C(=O)CN3CCCCC3 [IU1-47] + Cc1nc(NC(=O)N2CCC[C@H]2C(N)=O)sc1-c1ccnc(C(C)(C)C(F)(F)F)c1 [Alpelisib] (partner 2 µM)
Procedure, shortened: (§1)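 Lung cancer cell lines, seeded in 1536-well plates, were treated the following day by pin tool with a single drug or with five library-drug doses (not always all listed) in √10 steps on top of a fixed anchor-drug dose. Cells were fixed and nuclei stained in one step after 5 days, and nuclei were counted. Relative viability is the nuclei count for treated wells divided by that for vehicle wells, reported as medians of duplicate plates.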

IU1-47 + Dasatinib = compound: CC1=CC(=C(N1C2=CC=C(C=C2)Cl)C)C(=O)CN3CCCCC3 [IU1-47] + Cc1nc(Nc2ncc(C(=O)Nc3c(C)cccc3Cl)s2)cc(N2CCN(CCO)CC2)n1 [Dasatinib] (partner 0.075 µM)
Procedure, shortened: as §1

FG-4592 + Foretinib = compound: Cc1nc(C(=O)NCC(=O)O)c(O)c2ccc(Oc3ccccc3)cc12 [FG-4592] + COc1cc2c(Oc3ccc(NC(=O)C4(C(=O)Nc5ccc(F)cc5)CC4)cc3F)ccnc2cc1OCCCN1CCOCC1 [Foretinib] (partner 0.25 µM)
Procedure, shortened: as §1

FG-4592 + Phenformin = compound: Cc1nc(C(=O)NCC(=O)O)c(O)c2ccc(Oc3ccccc3)cc12 [FG-4592] + N=C(N)NC(=N)NCCc1ccccc1 [Phenformin] (partner 250 µM)
Procedure, shortened: as §1

Cell Line | relative viability (IU1-47 + Alpelisib; first compound 0.08 µM) | relative viability (IU1-47 + Alpelisib; first compound 0.253 µM) | relative viability (IU1-47 + Alpelisib; first compound 0.8 µM) | relative viability (IU1-47 + Alpelisib; first compound 2.53 µM) | relative viability (IU1-47 + Alpelisib; first compound 8 µM) | relative viability (IU1-47 + Dasatinib; first compound 0.08 µM) | relative viability (IU1-47 + Dasatinib; first compound 0.253 µM) | relative viability (IU1-47 + Dasatinib; first compound 0.8 µM) | relative viability (IU1-47 + Dasatinib; first compound 2.53 µM) | relative viability (IU1-47 + Dasatinib; first compound 8 µM) | relative viability (FG-4592 + Foretinib; first compound 0.08 µM) | relative viability (FG-4592 + Foretinib; first compound 0.253 µM) | relative viability (FG-4592 + Foretinib; first compound 0.8 µM) | relative viability (FG-4592 + Foretinib; first compound 2.53 µM) | relative viability (FG-4592 + Foretinib; first compound 8 µM) | relative viability (FG-4592 + Phenformin; first compound 0.08 µM) | relative viability (FG-4592 + Phenformin; first compound 0.253 µM) | relative viability (FG-4592 + Phenformin; first compound 0.8 µM) | relative viability (FG-4592 + Phenformin; first compound 2.53 µM) | relative viability (FG-4592 + Phenformin; first compound 8 µM)
NCI-H23 | 0.703 | 0.881 | 0.723 | 0.777 | 0.824 | 0.925 | 0.625 | 0.9 | 0.671 | 0.743 | 1.01 | 0.856 | 0.973 | 0.999 | 0.966 | 0.794 | 0.789 | 0.844 | 0.767 | 0.76
NCI-H322M | 0.802 | 0.82 | 0.805 | 0.755 | 0.831 | 0.251 | 0.251 | 0.257 | 0.265 | 0.238 | 0.87 | 0.937 | 0.903 | 0.975 | 0.91 | 0.597 | 0.716 | 0.728 | 0.715 | 0.708
NCI-H358 | 0.917 | 0.877 | 0.91 |  | 0.682 | 0.147 | 0.142 | 0.156 | 0.168 | 0.211 | 0.732 | 0.632 | 0.85 | 0.535 | 0.632 | 0.361 | 0.293 | 0.372 | 0.324 | 0.5
NCI-H441 | 0.672 | 0.82 | 0.616 | 0.92 | 0.779 | 0.717 | 0.655 | 0.679 | 0.471 | 0.576 | 0.956 | 0.896 | 0.931 | 0.841 | 1.01 | 0.876 | 0.69 | 0.928 | 0.686 | 0.848
NCI-H460 | 0.564 | 0.575 | 0.532 | 0.587 | 0.488 | 0.68 | 0.508 | 0.654 | 0.538 | 0.501 | 0.986 | 1.04 | 1.04 | 1.03 | 1.03 | 0.538 | 0.521 | 0.548 | 0.54 | 0.491
NCI-H520 | 0.947 | 0.948 | 1.03 | 0.907 | 0.726 | 0.197 | 0.172 | 0.203 | 0.217 | 0.166 | 0.497 | 0.639 | 0.674 | 0.868 | 0.605 | 0.31 | 0.595 |  | 0.51 | 0.465
NCI-H596 | 0.638 | 0.44 | 0.0053 | 0.429 | 0.49 | 0.574 | 0.617 | 0.606 | 0.595 | 0.554 | 0.814 | 0.617 | 0.764 | 0.867 | 0.465 | 0.637 | 0.712 | 0.512 | 0.72 | 0.473
NCI-H647 | 1.18 | 1.21 | 1.19 | 1.07 | 0.383 | 0.171 | 0.179 |  | 0.155 | 0.177 | 1.19 | 1.07 | 1.18 | 0.815 | 0.782 | 0.435 | 0.536 | 0.46 | 0.467 | 0.457
